Assay results from the supplement of paper PMC10307832.

What was measured:
Test in all cases: relative viability (nuclei count vs DMSO), 5 days (fraction); higher = more cells survive
[1] = compound: CCn1c(-c2nonc2N)nc2c(C#CC(C)(C)O)ncc(OC[C@H]3CCCNC3)c21 + Nc1ncn([C@H]2C[C@H](O)[C@@H](CO)O2)c(=O)n1 [Decitabine] (partner 2 µM)
Method in brief: (§1)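 Medians of duplicate plates are given as relative viability. That measure is the nuclei count in treated wells divided by the count in vehicle wells. Counts were taken on 4× images of lung cancer cell lines in 1536-well plates, 5 days after pin-tool dosing the day after seeding with one drug alone or a fixed anchor-drug dose plus five library-drug doses (not always all listed) in √10 steps.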

[2] = compound: CCn1c(-c2nonc2N)nc2c(C#CC(C)(C)O)ncc(OC[C@H]3CCCNC3)c21 + O=C(c1cc(Cc2n[nH]c(=O)c3ccccc23)ccc1F)N1CCN(C(=O)C2CC2)CC1 [Olaparib] (partner 8 µM)
Method in brief: as §1

[3] = compound: CCn1c(-c2nonc2N)nc2c(C#CC(C)(C)O)ncc(OC[C@H]3CCCNC3)c21 + COc1cccc2cc(-c3nc([C@H]4CC[C@H](C(=O)O)CC4)n4ncnc(N)c34)[nH]c12 [OSI-027] (partner 0.5 µM)
Method in brief: as §1

BAM7 + Pemetrexed = compound: CCOC1=CC=CC=C1N=NC2=C(NN(C2=O)C3=NC(=CS3)C4=CC=CC=C4)C [BAM7] + Nc1nc2[nH]cc(CCc3ccc(C(=O)N[C@@H](CCC(=O)O)C(=O)O)cc3)c2c(=O)[nH]1 [Pemetrexed] (partner 0.2 µM)
Method in brief: as §1

| Cell Line | relative viability ([1]; first compound 0.01 µM) | relative viability ([1]; first compound 0.03162 µM) | relative viability ([1]; first compound 0.1 µM) | relative viability ([1]; first compound 0.3162 µM) | relative viability ([1]; first compound 1 µM) | relative viability ([2]; first compound 0.01 µM) | relative viability ([2]; first compound 0.03162 µM) | relative viability ([2]; first compound 0.1 µM) | relative viability ([2]; first compound 0.3162 µM) | relative viability ([2]; first compound 1 µM) | relative viability ([3]; first compound 0.01 µM) | relative viability ([3]; first compound 0.03162 µM) | relative viability ([3]; first compound 0.1 µM) | relative viability ([3]; first compound 0.3162 µM) | relative viability ([3]; first compound 1 µM) | relative viability (BAM7 + Pemetrexed; first compound 0.5 µM) | relative viability (BAM7 + Pemetrexed; first compound 5 µM) | relative viability (BAM7 + Pemetrexed; first compound 15.81 µM) | relative viability (BAM7 + Pemetrexed; first compound 50 µM) |
| --- | --- | --- | --- | --- | --- | --- | --- | --- | --- | --- | --- | --- | --- | --- | --- | --- | --- | --- | --- |
| SK-LU-1 | 0.669 | 0.639 | 0.75 | 0.611 | 0.574 | 0.49 | 0.723 | 0.482 | 0.43 | 0.461 | 0.387 | 0.365 | 0.318 | 0.29 | 0.343 | 0.906 | 1.07 | 0.905 | 0.99 |
| ChaGo-K-1 | 0.483 | 0.5 | 0.559 | 0.487 | 0.533 | 0.397 | 0.443 | 0.408 | 0.408 | 0.398 | 0.556 | 0.561 | 0.504 | 0.518 | 0.6 | 0.256 | 0.257 | 0.249 | 0.272 |
| COR-L 105 | 0.651 | 0.681 | 0.651 | 0.749 | 1.58 | 0.658 | 0.759 | 0.689 | 0.696 | 1.19 | 0.664 | 0.802 | 0.59 | 0.52 | 0.499 | 1.02 | 1.31 | 1.01 | 1.15 |
| NCI-H1975 | 0.428 | 0.382 | 0.378 | 0.409 | 0.359 | 0.745 | 0.809 | 0.837 | 0.784 | 0.757 | 0.747 | 0.824 | 0.616 | 0.57 | 0.6 | 0.292 | 0.276 | 0.269 | 0.288 |
| NCI-H1993 | 0.534 | 0.643 | 0.599 | 0.63 | 0.677 | 1.14 | 1.13 | 0.963 | 0.943 | 0.985 | 0.579 | 0.537 | 0.525 | 0.546 | 0.549 | 0.62 | 0.529 | 0.5 | 0.581 |
| RERF-LC-KJ | 0.694 | 0.643 | 0.684 | 0.59 | 0.656 | 1 | 0.87 | 0.854 | 0.854 | 0.797 | 0.497 | 0.564 | 0.526 | 0.446 | 0.395 | 0.518 | 0.53 | 0.464 | 0.529 |
| NCI-H23 | 0.287 | 0.332 | 0.307 | 0.27 | 0.302 | 0.294 | 0.275 | 0.269 | 0.309 | 0.313 | 0.679 | 0.612 | 0.606 | 0.638 | 0.597 | 0.832 | 0.851 | 0.622 | 0.709 |
| HCC-366 | 0.342 | 0.34 | 0.361 | 0.302 | 0.335 | 0.421 | 0.366 | 0.359 | 0.321 | 0.354 | 0.963 | 0.834 | 0.45 | 1 | 0.838 | 0.107 | 0.117 | 0.125 | 0.115 |
| EMC-BAC-2 | 0.966 |  | 0.996 | 0.916 | 1.04 | 0.457 | 0.501 | 0.503 | 0.454 | 0.468 | 0.341 | 0.379 | 0.354 | 0.369 | 0.336 | 0.439 | 0.458 | 0.474 | 0.452 |
| NCI-H2405 | 0.782 | 0.75 | 0.721 | 0.692 | 0.647 | 0.836 | 0.844 | 0.821 | 0.8 | 0.915 | 0.646 | 0.647 | 0.597 | 0.612 | 0.612 | 1.11 | 1.06 | 1.09 | 1.11 |
| NCI-H358 | 0.234 | 0.191 | 0.221 | 0.207 | 0.201 | 0.556 | 0.601 | 0.569 | 0.525 | 0.518 | 0.723 | 0.822 | 0.692 | 0.445 | 0.373 |  | 0.177 | 0.166 | 0.159 |
| NCI-H1944 | 0.443 | 0.415 | 0.45 | 0.446 | 0.448 | 0.393 | 0.418 | 0.4 | 0.41 | 0.407 | 0.367 | 0.403 | 0.434 | 0.37 | 0.401 | 0.581 | 0.541 | 0.512 | 0.512 |
| NCI-H2342 | 0.747 | 0.692 | 0.773 | 0.667 | 0.625 | 0.517 | 0.42 | 0.486 | 0.482 | 0.44 | 0.598 | 0.617 | 0.517 | 0.546 | 0.594 | 0.677 | 0.712 | 0.734 | 0.72 |
| EPLC-272H | 0.413 | 0.378 | 0.349 | 0.347 | 0.356 | 0.833 | 0.853 | 0.641 | 0.56 | 0.507 | 0.303 | 0.261 | 0.262 | 0.314 | 0.264 | 0.328 | 0.371 | 0.401 | 0.322 |
| NCI-H1915 | 0.254 | 0.252 | 0.258 | 0.248 | 0.248 | 0.258 | 0.277 | 0.225 | 0.249 | 0.255 | 0.625 | 0.648 | 0.573 | 0.629 | 0.652 | 0.425 | 0.505 | 0.524 | 0.46 |
| NCI-H596 | 1.05 |  | 0.961 | 0.929 | 1.03 | 0.682 |  | 0.72 | 0.697 | 0.871 | 0.618 | 0.789 | 0.663 | 0.668 | 0.645 | 0.544 | 0.498 | 0.452 | 0.559 |
| NCI-H322M | 0.785 | 0.721 | 0.617 | 0.593 | 0.575 | 0.779 | 0.71 | 0.693 | 0.749 | 0.831 | 0.479 | 0.496 | 0.45 | 0.42 | 0.483 | 0.622 | 0.64 | 0.645 | 0.582 |
| NCI-H522 | 0.656 | 0.675 | 0.682 | 0.679 | 0.716 | 0.622 | 0.779 | 0.724 | 0.628 | 0.581 | 0.673 | 0.691 | 0.741 | 0.634 | 0.748 | 1.13 | 1.09 | 1.25 | 0.998 |
| NCI-H647 | 0.384 | 0.379 | 0.407 | 0.299 | 0.371 | 0.467 | 0.775 | 0.486 | 0.561 | 0.517 | 0.579 | 0.652 | 0.615 | 0.419 | 0.687 | 0.168 | 0.2 | 0.188 | 0.17 |
| SK-MES-1 | 0.329 | 0.397 | 0.399 | 0.353 | 0.378 | 0.658 | 0.72 | 0.678 | 0.649 | 0.702 | 0.642 | 0.598 | 0.552 | 0.531 | 0.609 | 0.919 | 0.906 | 0.814 | 0.866 |
| NCI-H2170 | 0.503 | 0.445 | 0.475 | 0.454 | 0.53 | 0.654 | 0.567 | 0.645 | 0.559 | 0.586 | 0.733 | 0.715 | 0.766 | 0.66 | 0.679 | 0.252 | 0.281 | 0.251 | 0.269 |
| NCI-H2085 | 0.489 | 0.517 | 0.601 | 0.58 | 0.556 | 0.758 | 0.807 | 0.795 | 0.755 | 0.725 | 0.84 | 0.895 | 0.806 | 0.72 | 0.656 | 1.02 | 0.675 | 0.844 | 0.992 |
| SW 1573 | 0.462 | 0.388 | 0.448 | 0.42 | 0.337 | 0.553 | 0.39 | 0.477 | 0.399 | 0.364 | 0.59 | 0.559 | 0.514 | 0.34 | 0.27 | 0.843 | 0.822 | 0.801 | 0.823 |
| NCI-H441 | 0.226 | 0.226 | 0.271 | 0.197 | 0.29 | 0.554 | 0.726 | 0.529 | 0.551 | 0.567 | 0.675 | 0.67 | 0.466 | 0.469 | 0.437 | 0.299 | 0.252 | 0.277 | 0.242 |
| LOU-NH91 | 0.821 | 0.788 | 0.891 | 0.73 | 0.779 | 0.936 | 0.914 | 0.936 | 0.797 | 0.856 | 0.718 | 0.694 | 0.706 | 0.625 | 0.594 | 0.347 | 0.436 | 0.392 | 0.346 |
| NCI-H3122 | 0.499 | 0.364 | 0.427 | 0.436 | 0.414 | 0.591 | 0.62 | 0.632 | 0.559 | 0.609 | 0.875 | 0.913 | 0.791 | 0.317 | 0.4 | 0.194 | 0.191 | 0.196 | 0.195 |
| NCI-H460 | 0.529 | 0.398 | 0.493 | 0.465 | 0.513 | 0.363 | 0.411 | 0.474 | 0.403 | 0.495 | 0.579 | 0.784 | 0.588 | 0.535 | 0.548 | 0.0639 | 0.0614 | 0.0597 | 0.0573 |
| NCI-H650 | 0.323 | 0.348 | 0.32 | 0.304 | 0.29 | 0.387 | 0.43 | 0.435 | 0.371 | 0.392 | 0.412 | 0.39 | 0.495 | 0.463 | 0.441 | 1.03 | 0.979 | 0.987 | 1 |
